For series [1], the system named is patients with multi-infarct dementia. The following applies: cited from earlier work.
In series [2] the test system is elderly patients with a diagnosis of vascular depression currently being treated with an SSRI and/or SNRI. Nature of the series: Case studies of pentoxifylline and propentofylline add-on treatment of vascular depression (HDRS). The series is classed as in vivo, human. To be noted: add-on to existing SSRI and/or SNRI. The protocol: These case studies investigate the effects of pentoxifylline and propentofylline in one or more elderly patients (>60 years of age) with a diagnosis of vascular depression and who are currently being treated with an SSRI and/or SNRI.
Patients are evaluated at baseline and at regular intervals for a period of months. They are evaluated according to the Hamilton Depressive Rating Scale (HDRS; Hamilton, J. Neurol. Neurosurg. Psychiatry 23:56-62 (1960)).
In one group, pentoxifylline is administered orally in a dose of 400 mg three times a day to augment their SSRI and/or SNRI treatment regimen. In another group, propentofylline is administered orally in a dose of 200 mg three times a day to augment their SSRI and/or SNRI treatment regimen.

The test system of series [3] is elderly patients with a diagnosis of vascular depression. Nature of the series: Case studies of pentoxifylline and propentofylline treatment of vascular depression (HDRS). The series is classed as in vivo, human. The following applies: oral monotherapy. The protocol: Patients are evaluated at baseline and at regular intervals for a period of months. They are evaluated according to the Hamilton Depressive Rating Scale (HDRS; Hamilton, J. Neurol. Neurosurg. Psychiatry 23:56-62 (1960)). Patients are excluded if their HDRS is ≦15.
In one group, pentoxifylline is administered orally in a dose of 400 mg three times a day. In another group, propentofylline is administered orally in a dose of 200 mg three times a day.

For series [4] the following is noted: in vivo; cited from earlier work.

Each structure is given as a SMILES string.

Take `CC(=O)CCCCn1c(=O)c2c(ncn2C)n(C)c1=O` [pentoxifylline, 1-(5-oxohexyl)-3,7-dimethylxanthine]: the “intellectual and cognitive function” value in series [1] was “improve”. In addition, the tolerability result in series [2] and in series [3] was “well tolerated” in each case.
On to `CCCn1cnc2c1c(=O)n(CCCCC(C)=O)c(=O)n2C` [propentofylline, 1-(5-oxohexyl)-3-methyl-7-n-propylxanthine], for which the tolerability result in series [2] and in series [3] was “well tolerated” each time.
In the case of `CC(O)CCCCn1c(=O)c2c(ncn2C)n(C)c1=O` (stereo not drawn) [1(5-hydroxyhexyl)-3,7-dimethylxanthine], the cerebral blood flow entry in series [4] is “increasing cerebral blood flow”.

The values above are taken from US20090258860A1, “XANTHINE DERIVATIVES FOR THE TREATMENT OF VASCULAR DEPRESSION” (Duke University, priority 2006, published 2009).
